The text below walks through data of US12281119B2, “Imidazo[2,1-f][1,2,4]triazin-4-amine derivatives as TLR7 agonist” (BEIGENE, LTD., priority 2019, dated 2025).

A value given as a limit tells only on which side of the number the result lay.

For this assay, the target named is T1, human TLR7 (Homo sapiens, UniProt Q9NYK1).
T1 sequence (Q9NYK1 27-1049): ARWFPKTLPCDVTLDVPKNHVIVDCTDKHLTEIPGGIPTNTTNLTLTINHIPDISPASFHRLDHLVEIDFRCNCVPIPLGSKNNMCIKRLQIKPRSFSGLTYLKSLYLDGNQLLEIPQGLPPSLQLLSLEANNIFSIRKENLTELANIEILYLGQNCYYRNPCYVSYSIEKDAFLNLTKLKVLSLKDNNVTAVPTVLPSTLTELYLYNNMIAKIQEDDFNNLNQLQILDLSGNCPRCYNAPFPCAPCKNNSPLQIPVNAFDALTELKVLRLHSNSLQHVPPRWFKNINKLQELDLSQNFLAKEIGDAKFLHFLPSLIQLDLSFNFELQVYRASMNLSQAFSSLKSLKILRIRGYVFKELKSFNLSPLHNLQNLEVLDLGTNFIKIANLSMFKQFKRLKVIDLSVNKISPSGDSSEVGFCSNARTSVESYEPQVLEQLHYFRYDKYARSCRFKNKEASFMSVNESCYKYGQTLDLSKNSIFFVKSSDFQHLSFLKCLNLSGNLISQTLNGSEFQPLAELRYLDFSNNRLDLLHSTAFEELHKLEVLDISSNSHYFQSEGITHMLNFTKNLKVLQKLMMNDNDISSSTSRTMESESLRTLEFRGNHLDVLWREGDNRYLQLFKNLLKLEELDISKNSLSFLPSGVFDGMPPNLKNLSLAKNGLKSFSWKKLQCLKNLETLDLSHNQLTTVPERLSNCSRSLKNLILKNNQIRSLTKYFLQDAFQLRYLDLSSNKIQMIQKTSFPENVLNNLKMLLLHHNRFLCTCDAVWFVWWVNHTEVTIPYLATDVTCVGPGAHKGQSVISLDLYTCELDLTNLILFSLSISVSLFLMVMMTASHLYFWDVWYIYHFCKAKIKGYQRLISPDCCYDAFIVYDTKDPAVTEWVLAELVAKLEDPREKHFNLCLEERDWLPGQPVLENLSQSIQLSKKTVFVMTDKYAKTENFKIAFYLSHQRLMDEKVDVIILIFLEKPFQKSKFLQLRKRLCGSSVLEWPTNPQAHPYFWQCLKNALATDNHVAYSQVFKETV
The assay can be described thus: HEK293-Blue hTLR7 reporter assay (QUANTI-BLUE, SEAP readout). It is filed as cell-based. More on the design: host or cells: HEK293 (HEK-Blue-hTLR7). The conditions noted are these: HEK-Blue-hTLR7 cells, QUANTI-BLUE assay (A1-A76), 24 hrs. The method, then: HEK293-Blue hTLR7 Reporter Assay:
HEK-Blue-hTLR7 cell line (Invivogen, Cat. No. hkb-htlr7) was designed so that the expression of the secreted embryonic alkaline phosphatase (SEAP) was induced by activating NF-κ and AP-1 via stimulating human TLR7 with TLR7 agonists.
HEK-Blue-hTLR7 cells were seeded at a density of 4×10^4 cells/well in a volume of 180 μL in a 96-well plate in DMEM (Cat. No. 11965-092) supplemented with 10% (v/v) heat-inactivated fetal bovine serum (FBS) (Gibco, 10099-1441), 100 U/ml penicillin and 100 μg/ml streptomycin (Gibco, 15140122) containing […], […] and 10% (v/v) heat-inactivated fetal bovine serum. The cells were settled for 5 hrs, then treated with increasing amounts of tested compounds at 37° C. for 24 hrs. Then 20 μL of the supernatant from each well was incubated with 180 uL Quanti-blue substrate solution at 37° C. for 10-30 mins before the activity of the SEAP was determined at 620-655 nm using a spectrophotometer. The EC50 value for each compound was calculated with GraphPad Prism software using the sigmoidal dose-response function.
What is called EC50 is the concentration at which the effect is half-maximal. High values mean a less potent agent, low ones a more potent agent. As for `CCCCOc1nc(N)c2ncc(Cc3ccc(OCCCN)cc3)n2n1` [Compound A31, 7-(4-(3-aminopropoxy)benzyl)-2-butoxyimidazo[2,1-f][1,2,4]triazin-4-amine], the EC50 was greater than 10000 nM.
Under `CCCCOc1nc(N)c2ncc(Cc3ccc(OCCCN(C)C)nc3)n2n1` [Compound A32, 2-butoxy-7-((6-(3-(dimethylamino)propoxy)pyridin-3-yl)methyl)imidazo[2,1-f][1,2,4]triazin-4-amine] stands 861 nM.
Under `CCCCOc1nc(N)c2ncc(Cc3ccc(CC4CCNCC4)cc3)n2n1` [Compound A33, 2-butoxy-7-(4-(piperidin-4-ylmethyl)benzyl)imidazo[2,1-f][1,2,4]triazin-4-amine] stands 1060 nM; under `CCCCOc1nc(N)c2ncc(Cc3cnc(OCCCN(C)C)c(Cl)c3)n2n1` [Compound A34, 2-butoxy-7-((5-chloro-6-(3-(dimethylamino)propoxy)pyridin-3-yl)methyl)imidazo[2,1-f][1,2,4]triazin-4-amine], 3370 nM; under `CCCCOc1nc(N)c2ncc(Cc3ccc(OCCCN(C)C)c(F)c3)n2n1` [Compound A35, 2-butoxy-7-(4-(3-(dimethylamino)propoxy)-3-fluorobenzyl)imidazo[2,1-f][1,2,4]triazin-4-amine], 2070 nM.
With `CCCCOc1nc(N)c2ncc(Cc3ccc(OCCCN(C)C)cc3F)n2n1` [Compound A36, 2-butoxy-7-(4-(3-(dimethylamino)propoxy)-2-fluorobenzyl)imidazo[2,1-f][1,2,4]triazin-4-amine], the EC50 was determined as 880 nM.
Molecule `CCCCOc1nc(N)c2ncc(Cc3ccc(OCCN)nc3)n2n1` [Compound A37, 7-((6-(2-aminoethoxy)pyridin-3-yl)methyl)-2-butoxyimidazo[2,1-f][1,2,4]triazin-4-amine] had an EC50 greater than 10000 nM.
Regarding `CCCCOc1nc(N)c2ncc(Cc3ccc(OC4C[C@H]5CC[C@@H](C4)N5)cc3F)n2n1` (stereo partly drawn) [Compound A38, 7-(4-(((1R,5S)-8-azabicyclo[3.2.1]octan-3-yl)oxy)-2-fluorobenzyl)-2-butoxyimidazo[2,1-f][1,2,4]triazin-4-amine], a half-maximal response (EC50) required 1860 nM.
With `CCCCOc1nc(N)c2ncc(Cc3ccc(CN4CCN(C(=O)CN(C)C)CC4)cc3)n2n1` [Compound A39, 1-(4-(4-((4-amino-2-butoxyimidazo[2,1-f][1,2,4]triazin-7-yl)methyl)benzyl)piperazin-1-yl)-2-(dimethylamino)ethan-1-one] the figure was 543 nM.
`CCCCOc1nc(N)c2ncc(Cc3cnc(OC4CCNCC4)c(Cl)c3)n2n1` [Compound A40, 2-butoxy-7-((5-chloro-6-(piperidin-4-yloxy)pyridin-3-yl)methyl)imidazo[2,1-f][1,2,4]triazin-4-amine] registered an EC50 of 602 nM.
Under `CCCCOc1nc(N)c2ncc(Cc3ccc(CN4C[C@@H]5C[C@H]4CN5)cc3)n2n1` [Compound A41, 7-(4-(((1S,4S)-2,5-diazabicyclo[2.2.1]heptan-2-yl)methyl)benzyl)-2-butoxyimidazo[2,1-f][1,2,4]triazin-4-amine] stands 1590 nM; under `CCCCOc1nc(N)c2ncc(Cc3ccc(CCN4CCCC4)cc3)n2n1` [Compound A42, 2-butoxy-7-(4-(2-(pyrrolidin-1-yl)ethyl)benzyl)imidazo[2,1-f][1,2,4]triazin-4-amine], 1380 nM; under `CCCCOc1nc(N)c2ncc(Cc3ccc(CN4CCC(N(C)C)C4)cc3)n2n1` (centres unmarked) [Compound A44, 2-butoxy-7-(4-((3-(dimethylamino)pyrrolidin-1-yl)methyl)benzyl)imidazo[2,1-f][1,2,4]triazin-4-amine], 1010 nM.
With `CCCCOc1nc(N)c2ncc(Cc3cnc(OCC(C)(C)CN(C)C)c(Cl)c3)n2n1` [Compound A45, 2-butoxy-7-((5-chloro-6-(3-(dimethylamino)-2,2-dimethylpropoxy)pyridin-3-yl)methyl)imidazo[2,1-f][1,2,4]triazin-4-amine] the figure was 3840 nM.
